Results on 25 compounds are retold here after PubChem BioAssay (NCI).

Assay in all cases: NCI anticancer screen, dose series, 48 h
Experiment [1] concerns OVCAR-5 ovarian.
Experiment [2] deals with COLO 205 colon.
In experiment [3] the test system is OVCAR-4 ovarian.
Experiment [4] deals with TK-10 renal.
In experiment [5] the test system is 786-0 renal.
Experiment [6] deals with SN12C renal.
Experiment [7] has as its system HS 578T breast.
Experiment [8] relates to MDA-MB-231 breast.
Experiment [9] concerns U251 CNS.
In experiment [10] the test system is CCRF-CEM leukemia.
In experiment [11] the test system is KM12 colon.

The structures appear in SMILES notation.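 Five compound concentrations were applied to cells in 96-well plates for 48 hours; endpoints were derived by simple linear interpolation of the resulting dose-response curve. TGI: total growth inhibition.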 Bounds are passed on as bounds.

`CCOCc1nc2c(OC)cc(-c3nc4ccc(N5CCN(C)CC5)cc4[nH]3)c(OC)c2[nH]1`: the TGI is above 100 µM in experiment [1]; 38 µM in experiment [2]; above 100 µM in [3]; above 100 µM in experiment [4]; above 100 µM in experiment [5]; above 100 µM in [6]. In addition, the TGI in [7] is above 100 µM; in experiment [8], 81.9 µM; in experiment [9], above 100 µM; in experiment [10] it was 34 µM; in experiment [11], above 100 µM.

On to `O=C1CSC(c2cccc(Oc3ccccc3)c2)N1c1ccc(Cl)cc1` (stereo not given), for which the TGI in experiment [1] is above 100 µM; in [2], 35.5 µM; in [3] it was above 100 µM; in experiment [4] it was 71.9 µM; in [5], above 100 µM; in experiment [6], above 100 µM. In addition, the TGI in experiment [7], in experiment [8], in experiment [9], in experiment [10] and in experiment [11] was above 100 µM in each case.

With `Oc1ccc(-c2nc(-c3cccnc3)c(-c3ccc(Cl)cc3)[nH]2)cc1`, the TGI in experiment [1] was 33.5 µM; in [2], 23.9 µM; in experiment [3], 23.3 µM; in experiment [4], 26.3 µM; in experiment [5], 28.8 µM; in [6] it was 32.6 µM. Moreover, the TGI came to 56 µM in experiment [7]; 35.1 µM in experiment [8]; 28.5 µM in [9]; 17.9 µM in experiment [10]; 25.7 µM in [11].

As to `Cc1ccc(/C=C2\CCCc3ccccc3C2=O)cc1`, the TGI is 29.5 µM in experiment [1]; 18.9 µM in experiment [2]; above 100 µM in [3]; above 100 µM in experiment [4]; above 100 µM in experiment [5]; 39.6 µM in [6]. The TGI in [7] worked out at 30.8 µM; in experiment [8] it was 36.9 µM; in [9], 52.9 µM; in experiment [10] it was 36.5 µM; in [11], 18.2 µM.

As for `COc1cccc(-c2ccc3c4c2O[C@H]2C(=O)CC[C@@]5(O)[C@@H](C3)N(CC3CC3)CC[C@]425)c1`, the TGI in [1] turned out to be 35.7 µM; in experiment [2], 26.7 µM; in experiment [3], 31.4 µM; in [4] it was 32.2 µM; in [5], 32.1 µM; in [6] it was 41.4 µM. The TGI came out at 29.1 µM in experiment [7]; 30.3 µM in experiment [8]; 29.9 µM in [9]; 27.9 µM in experiment [10]; 31.7 µM in experiment [11].

Turning to `CC(C)[Si](OC1=C(C(=O)N(C)c2cccc(Cl)c2)CCCC1)(C(C)C)C(C)C`, the TGI in experiment [1] turned out to be 22.5 µM; in [2] it was 35 µM; in experiment [3], 26 µM; in experiment [4], 30.4 µM; in experiment [5], 34.2 µM; in [7] it was 30.3 µM. Besides, the TGI stood at 34.6 µM in experiment [8], 32.9 µM in experiment [9], 49 µM in [10] and 26.5 µM in [11].

As to `C=CC(CCc1ccc(C(=O)OCC)cc1)c1c(N)nc(N)[nH]c1=O` (stereo not given), the TGI in experiment [2], in experiment [3], in experiment [4], in experiment [5], in [6] and in experiment [7] was above 100 µM in each case. Moreover, the TGI in experiment [8], in [9], in [10] and in experiment [11] was above 100 µM in each case.

With `C[C@]12CCC(=O)O[C@H]1CCCCO2`, the TGI in experiment [1], in [2], in [4], in [5], in experiment [6] and in experiment [7] was above 100 µM throughout. The TGI in experiment [8], in experiment [9], in [10] and in experiment [11] was above 100 µM in each case.

Consider `C(=Nc1ccc(-c2nc3ccccc3[nH]2)cc1)c1cccs1`, for which the TGI in experiment [1], in experiment [2], in experiment [3], in [4], in experiment [5] and in experiment [6] was above 100 µM each time. Besides, the TGI in experiment [7], in experiment [8], in experiment [9], in experiment [10] and in experiment [11] was above 100 µM in each case.

`COc1cc(/C=C2\C(=O)N(c3ccccc3)C(c3ccccc3)S2(=O)=O)cc(OC)c1OC` (stereo not given): the TGI in experiment [1], in [2], in [3], in experiment [4], in experiment [5] and in [6] was above 100 µM throughout. For the same compound, the TGI is above 100 µM in experiment [7]; above 100 µM in experiment [8]; above 100 µM in [9]; 56.8 µM in experiment [10]; above 100 µM in experiment [11].

For `C[N+](C)(C)CC1CCCCCCCCCCC1=O` (stereo not given), the TGI in experiment [1], in experiment [2], in experiment [3], in experiment [4], in experiment [5] and in experiment [6] was above 100 µM throughout. Besides, the TGI in experiment [7], in experiment [8], in experiment [9], in [10] and in experiment [11] was above 100 µM each time.

For the compound `COC(CNC(=O)C(C)NC(=O)CCc1ccccc1)OC` (stereo not given), the TGI in [1], in [2], in [3], in experiment [4], in experiment [5] and in experiment [6] was above 100 µM each time. The TGI in [7], in experiment [8], in experiment [9], in experiment [10] and in [11] was above 100 µM in each case.

In the case of `Cc1nc(-c2cc3cc([N+](=O)[O-])ccc3oc2=O)cs1`, the TGI in experiment [1], in experiment [2], in experiment [3], in [4], in experiment [5] and in experiment [6] was above 100 µM each time. Besides, the TGI in experiment [7], in experiment [8], in [9], in experiment [10] and in experiment [11] was above 100 µM each time.

In the case of `CC(C)=CCC/C(C)=C/C=C/C(C)=C/C=C/C(C)=C/C=C/C=C(C)/C=C/C=C(C)/C=C/[C@H]1C(C(C)(C)O)CC[C@]1(C)O` (stereo not given in full), the TGI is above 100 µM in [1]; above 100 µM in experiment [3]; above 100 µM in experiment [4]; 46.8 µM in experiment [5]; 59.1 µM in experiment [7]; 66.9 µM in [8]. The TGI in experiment [9] came to 47.4 µM; in experiment [10], 34 µM; in [11] it was 70.6 µM.

In the case of `CCOC(=O)N/N=C(/N)c1cccc([N+](=O)[O-])c1`, the TGI in experiment [1], in [2], in experiment [3], in [4], in [5] and in experiment [6] was above 100 µM throughout. Moreover, the TGI in [7], in experiment [8], in experiment [9], in experiment [10] and in experiment [11] was above 100 µM throughout.

As to `O=C(O)c1ccc([N+](=O)[O-])c2cc3cnccc3nc12`, the TGI stood at 76.9 µM in experiment [1]; 40.4 µM in experiment [2]; 32.8 µM in experiment [6]; 65.6 µM in experiment [7]; 36.2 µM in [8]; 35.6 µM in experiment [9]. The TGI came out at 9.03 µM in experiment [10] and 44.4 µM in experiment [11].

Turning to `COc1ccc(C2OC[C@H]3O[C@@H](OCc4ccccc4)[C@H](O)[C@@H](O)[C@@H]3O2)cc1` (stereo not given in full), the TGI in [1], in experiment [2], in experiment [3], in [4], in [6] and in experiment [7] was above 100 µM each time. Also, the TGI in experiment [8], in [9] and in [10] was above 100 µM throughout.

Consider `CCCCN1C(=O)N(c2ccc(OCC)cc2)C2N(CCCC)C1C(C)(C)C2(C)C` (stereo not given), for which the TGI is 70 µM in [2]; above 100 µM in [3]; 60.2 µM in experiment [4]; above 100 µM in experiment [5]; above 100 µM in [6]; 75.2 µM in experiment [7]. In addition, the TGI in experiment [8] was above 100 µM; in [9], above 100 µM; in experiment [10], 63.7 µM; in [11], above 100 µM.

Take `O=C1/C(=N/O)Cc2c(Br)ccc(Br)c21`: the TGI in experiment [1], in experiment [3], in experiment [4], in experiment [5], in experiment [7] and in experiment [8] was above 100 µM throughout. Further, the TGI in experiment [9], in [10] and in experiment [11] was above 100 µM each time.

For `COC[C@@H](C[C@H]1O[C@@](O)([C@H](O)[C@@H]2C[C@H](OC)[C@@H](O)CC/C=C(C)/C=C/[C@@H](O[C@@H]3O[C@@H](C)[C@H](OC)[C@@H](O)[C@@H]3O)[C@H](C)/C=C(C)/C=C(C)/C=C(\C)C(=O)O2)[C@H](C)[C@@H](O)[C@H]1C)O[C@H]1C[C@](C)(O)[C@@H](O[C@H]2C[C@@H](OC)[C@H](O)[C@@H](C)O2)C(C)O1` (stereo not given in full), the TGI in experiment [1], in experiment [2], in experiment [3], in experiment [4], in [5] and in [6] was above 100 µM each time. The TGI in experiment [7], in experiment [8], in experiment [9] and in experiment [11] was above 100 µM throughout.

As for `CC(=O)OC(/C=C/c1ccccc1)=C(OC(C)C)/C1=C(\c2ccccc2)SCCCSC1=O`, the TGI in experiment [1], in experiment [2], in experiment [3], in experiment [4], in [5] and in [7] was above 100 µM in each case. The TGI in [8], in [9], in [10] and in [11] was above 100 µM each time.

For the compound `O=C1C(CN2CCCCC2)CCC1CN1CCCCC1` (stereo not given), the TGI is 47.8 µM in [1]; 40.7 µM in experiment [2]; 37 µM in experiment [4]; 41.7 µM in experiment [5]; 45.5 µM in [6]; above 73.2 µM in experiment [7]. Besides, the TGI in [8] is 42.3 µM; in experiment [9], above 73.2 µM; in experiment [10], 3.97 µM; in experiment [11], above 69.7 µM.

As for `N=C(N)c1ccc(C(NC(=O)CNS(=O)(=O)c2ccc3ccccc3c2)P(=O)(Oc2ccccc2)Oc2ccccc2)cc1` (stereo not given), the TGI in experiment [1], in [2], in [3], in experiment [5], in experiment [6] and in [7] was above 100 µM each time. Moreover, the TGI in [8], in experiment [9], in experiment [10] and in experiment [11] was above 100 µM throughout.

Turning to `CCOP(C)(=O)C(N)Cc1ccc(OC)c(OC)c1` (stereo not given), the TGI in experiment [2], in experiment [3], in experiment [4], in experiment [5], in experiment [6] and in experiment [7] was above 100 µM each time. Also, the TGI in experiment [8], in experiment [9] and in [10] was above 100 µM in each case.

As for `CC(=O)OCC12C(=O)C[C@@H](C)C3(CC(c4ccoc4)OC3=O)C1CCC(OC(C)=O)C21CO1` (stereo not given in full), the TGI in [1], in experiment [2], in experiment [3], in experiment [4], in experiment [5] and in [6] was above 100 µM throughout. For the same compound, the TGI in [7], in experiment [8], in [9] and in experiment [11] was above 100 µM throughout.
